Measured values as given in ChEMBL document CHEMBL1158744, “Leptolide, a new furanocembranolide diterpene from Leptogorgia alba” (J Nat Prod, 2005).

The molecules below were run on Plasmodium falciparum (assay: Antiplasmodial activity against Plasmodium falciparum W2 after 48 hrs in PicoGreen microfluorimetry). Details: W2, 48 h.
Assay type: functional, organism-based
In the case of `C=C(C)[C@H]1CC2=C(C(=O)OC)C=C(O2)[C@H]2O[C@]2(C)C[C@H]2C=C(C(=O)O2)[C@H](OC(C)=O)C1`, the IC50 is reported as 109 µM.
`C=C(C)[C@@H]1CCC2=C[C@@H](OC2=O)[C@@H](C(=C)C)C2=CC(C(=O)OC)=C(C1)O2` [DEOXYPSEUDOPTEROLIDE] gave an IC50 of 50 µM.
Work on `C=C(C)[C@H]1CC2=C(C(=O)OC)C=C(O2)[C@H]2O[C@]2(C)C[C@@H]2OC(=O)[C@]3(O[C@@H]23)[C@H](OC(C)=O)C1` [LOPHOLIDE] yielded an IC50 of 105 µM.
`C=C(C)[C@@H]1CC2=C(C=O)C=C(O2)[C@@H]2O[C@@]2(C)C[C@H]2OC(=O)[C@@]3(O[C@H]23)[C@@H](OC(C)=O)C1` [LOPHOTOXIN] gave an IC50 of 74 µM.
`C=C(C)[C@H]1CCC2=C[C@@H](C[C@]3(C)O[C@H]3C3=CC(C=O)=C(C1)O3)OC2=O` [PUKALIDE ALDEHYDE] showed an IC50 of 134 µM.
